Assay results: patent US10392347B2, “2,4-dihydroxy-nicotinamides as APJ agonists” (BRISTOL-MYERS SQUIBB COMPANY, priority 2015, dated 2019)
Where two headings read alike, the source gives them in different places.

Molecular target: T1, human APJ receptor (Homo sapiens, UniProt P35414)
T1 construct: expressed in transfected cells
T1 sequence (P35414 1-380): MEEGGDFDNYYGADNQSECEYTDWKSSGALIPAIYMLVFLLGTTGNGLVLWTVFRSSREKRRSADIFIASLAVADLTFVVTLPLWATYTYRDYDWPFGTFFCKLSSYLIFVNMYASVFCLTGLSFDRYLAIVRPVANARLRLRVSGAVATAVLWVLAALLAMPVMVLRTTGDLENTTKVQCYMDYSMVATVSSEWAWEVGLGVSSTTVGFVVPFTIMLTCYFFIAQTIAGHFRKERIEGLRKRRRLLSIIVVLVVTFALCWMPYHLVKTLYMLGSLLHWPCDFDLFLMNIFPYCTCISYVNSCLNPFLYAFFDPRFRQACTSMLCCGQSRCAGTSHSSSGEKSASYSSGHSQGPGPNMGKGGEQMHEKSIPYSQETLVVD
Test: Intracellular cAMP accumulation assay (APJ hcAMP, HTRF)
Format: cell-based
Details: HEK293 cells stably expressing human APJ, forskolin-stimulated cAMP
Experimental: Intracellular cAMP Accumulation Assay
HEK293 cells stably expressing human APJ receptor were used to assess the activity of compounds. Cultured cells were detached and resuspended in the cAMP Homogeneous Time-Resolved Fluorescence (HTRF) assay buffer (Cisbio cat; #62AM4PEJ). […] Serial dilutions of a compound together with assay buffer containing […] and 2 μM forskolin were added to each well containing 5,000 cells and incubated for 30 minutes at room temperature. Subsequently, cAMP D2 reagent was added in the lysis buffer followed by the EuK antibody (Cisbio; cat #62AM4PEJ) and incubated for 60 min. The fluorescence emission ratio was measured using fluorometer. The intracellular cAMP concentrations (compound-stimulated inhibition of forskolin-mediated cAMP production) were calculated by extrapolation from a standard curve using known cAMP concentrations. The EC50 values were obtained by fitting the data to a sigmoidal concentration-response curve with variable slope.
The EC50 value of each compound is presented at the end of the example description.
The biological activity of the exemplified compounds of this invention determined by the assay described above is shown at the end of each example.

[1] = Table 4, read-out: Human cAMP EC50
[2] = Table 1, read-out: APJ cAMP EC50

CCOCc1nc(O)c(C(=O)N2CCN(Cc3ccccc3F)CC2)c(O)c1-c1c(OC)cccc1OC [Example 89, 5-(2,6-dimethoxyphenyl)-6-(ethoxymethyl)-3-{4-[(2-fluorophenyl)methyl]piperazine-1-carbonyl}pyridine-2,4-diol]
EC50 [1]: 0.01 to 10 nM

CCOCc1nc(O)c(C(=O)N2CCC(c3ccccc3F)C2)c(O)c1-c1c(OC)cccc1OC (centres unmarked) [Example 126, 5-(2,6-dimethoxyphenyl)-6-(ethoxymethyl)-3-[3-(2-fluorophenyl)pyrrolidine-1-carbonyl]pyridine-2,4-diol]
EC50 (Table 5, read-out: Human cAMP EC50): 0.01 to 10 nM

COc1cccc(OC)c1-c1c(-c2ccc(F)cc2)nc(O)c(C(=O)N2CCC(c3ccccc3F)C2)c1O (centres unmarked) [Example 86, (5-(2,6-dimethoxyphenyl)-6-(4-fluorophenyl)-2,4-dihydroxypyridin-3-yl)(3-(2-fluorophenyl)pyrrolidin-1-yl)methanone]
EC50 (Table 3, read-out: APJ cAMP EC50): 0.01 to 10 nM

CCCCc1nc(O)c(C(=O)N2CCN(c3ccc(Cl)cn3)CC2)c(O)c1-c1c(OC)cccc1OC [Example 6, 6-butyl-3-[4-(5-chloropyridin-2-yl)piperazine-1-carbonyl]-5-(2,6-dimethoxyphenyl)pyridine-2,4-diol]
EC50 [2]: 10 to 100 nM

CCOCc1nc(O)c(C(=O)N2CCN(Cc3cccc(F)c3F)CC2)c(O)c1-c1c(OC)cccc1OC [Example 114, 3-{4-[(2,3-difluorophenyl)methyl]piperazine-1-carbonyl}-5-(2,6-dimethoxyphenyl)-6-(ethoxymethyl)pyridine-2,4-diol]
EC50 [1]: 0.01 to 10 nM

CCCCc1nc(O)c(C(=O)N2CCN(c3nc4ccccc4o3)CC2)c(O)c1-c1c(OC)cccc1OC [Example 51, 3-[4-(1,3-benzoxazol-2-yl)piperazine-1-carbonyl]-6-butyl-5-(2,6-dimethoxyphenyl)pyridine-2,4-diol]
EC50 [2]: 10 to 100 nM

CCCCc1nc(O)c(C(=O)N2CCN(Cc3ncccc3F)CC2)c(O)c1-c1c(OC)cccc1OC [Example 120, 6-butyl-5-(2,6-dimethoxyphenyl)-3-{4-[(3-fluoropyridin-2-yl)methyl]piperazine-1-carbonyl}pyridine-2,4-diol]
EC50 [1]: 0.01 to 10 nM

CCCCc1nc(O)c(C(=O)N2CCC(c3[nH]cnc3C)CC2)c(O)c1-c1c(OC)cccc1OC [Example 17, 6-butyl-5-(2,6-dimethoxyphenyl)-3-[4-(4-methyl-1H-imidazol-5-yl)piperidine-1-carbonyl]pyridine-2,4-diol]
EC50 [2]: 10 to 100 nM

CCCCc1nc(O)c(C(=O)N(C)CCCCc2ccccc2)c(O)c1-c1c(OC)cccc1OC [Example 2, 6-butyl-5-(2,6-dimethoxyphenyl)-2,4-dihydroxy-N-methyl-N-(4-phenylbutyl)pyridine-3-carboxamide]
EC50 [2]: 100 to 300 nM

CCCCc1nc(O)c(C(=O)N2CCC(Oc3ccccc3)CC2)c(O)c1-c1c(OC)cccc1OC [Example 92, 6-butyl-5-(2,6-dimethoxyphenyl)-3-(4-phenoxypiperidine-1-carbonyl)pyridine-2,4-diol]
EC50 [1]: 0.01 to 10 nM

CCCCc1nc(O)c(C(=O)N2CCN(Cc3cccc(Cl)n3)CC2)c(O)c1-c1c(OC)cccc1OC [Example 123, 6-butyl-3-{4-[(6-chloropyridin-2-yl)methyl]piperazine-1-carbonyl}-5-(2,6-dimethoxyphenyl)pyridine-2,4-diol]
EC50 [1]: 0.01 to 10 nM

CCNCc1nc(O)c(C(=O)N2CCC(c3ccccc3F)C2)c(O)c1-c1c(OC)cccc1OC (centres unmarked) [Example 151, 5-(2,6-dimethoxyphenyl)-6-[(ethylamino)methyl]-3-[3-(2-fluorophenyl)pyrrolidine-1-carbonyl]pyridine-2,4-diol]
EC50 (Table 8, read-out: Human cAMP EC50): 10 to 100 nM

CCCCc1[nH]c(=O)c(C(=O)N(CCC)Cc2ccccc2)c(O)c1-c1c(OC)cccc1OC [Example 33, N-benzyl-6-butyl-5-(2,6-dimethoxyphenyl)-2,4-dihydroxy-N-propylpyridine-3-carboxamide]
EC50 (APJ cAMP EC50 (nM), Table 1): 100 to 300 nM

CCCCc1nc(O)c(C(=O)N2CCC(Cc3cc(F)ccc3Br)CC2)c(O)c1-c1c(OC)cccc1OC [Example 113, 3-{4-[(2-bromo-5-fluorophenyl)methyl]piperidine-1-carbonyl}-6-butyl-5-(2,6-dimethoxyphenyl)pyridine-2,4-diol]
EC50 [1]: 0.01 to 10 nM
